Assay results from PubChem BioAssay (NCI).
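Each compound was tested at five concentrations against cells in 96-well plates for 48 hours. Here, GI50 denotes the concentration required for 50% inhibition of growth. Definition used: TGI = concentration required for complete inhibition of growth.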

Experiments:
Experiment in all cases: NCI tumour cell line growth inhibition, 48 h
[1] = tested on: HT29 colon
[2] = tested on: K-562 leukemia
[3] = tested on: CAKI-1 renal
[4] = tested on: MDA-MB-435
[5] = tested on: RPMI-8226 leukemia
[6] = tested on: SK-MEL-28 melanoma
[7] = tested on: UACC-257 melanoma
[8] = tested on: M14 melanoma
[9] = tested on: OVCAR-5 ovarian
[10] = tested on: NCI-H460 lung
[11] = tested on: MDA-MB-231 breast
[12] = tested on: A498 renal
[13] = tested on: DU-145 prostate
[14] = tested on: SNB-75 CNS
[15] = tested on: KM12 colon
[16] = tested on: SK-MEL-2 melanoma
[17] = tested on: HS 578T breast
[18] = tested on: OVCAR-8 ovarian
[19] = tested on: SF-539 CNS
[20] = tested on: EKVX NSCLC
[21] = tested on: U251 CNS
[22] = tested on: SF-268 CNS
[23] = tested on: UO-31 renal
[24] = tested on: RXF 393 renal
[25] = tested on: CCRF-CEM leukemia
[26] = tested on: HCT-116 colon
[27] = tested on: PC-3 prostate
[28] = tested on: HL-60(TB) leukemia
[29] = tested on: NCI-H226 lung
[30] = tested on: BT-549 breast
[31] = tested on: HOP-92 NSCLC
[32] = tested on: SNB-19 CNS
[33] = tested on: MOLT-4 leukemia
[34] = tested on: UACC-62 melanoma
[35] = tested on: COLO 205 colon
[36] = tested on: SF-295 CNS
[37] = tested on: SW-620 colon
[38] = tested on: HCT-15 colon
[39] = tested on: LOX IMVI melanoma
[40] = tested on: 786-0 renal
[41] = tested on: SR leukemia
[42] = tested on: NCI-H522 lung
[43] = tested on: MALME-3M melanoma
[44] = tested on: SN12C renal
[45] = tested on: SK-OV-3 ovarian
[46] = tested on: MCF7 breast
[47] = tested on: HOP-62 NSCLC
[48] = tested on: T-47D breast
[49] = tested on: IGROV1 ovarian
[50] = tested on: ACHN renal
[51] = tested on: NCI/ADR-RES ovarian
[52] = tested on: OVCAR-4 ovarian
[53] = tested on: TK-10 renal
[54] = tested on: SK-MEL-5 melanoma
[55] = tested on: A549 NSCLC
[56] = tested on: HCC-2998 colon

CN(C)CCN(C)c1ccc2ncc(C#Cc3cncc(C(=O)Nc4ccc(CN5CCN(C)CC5)c(C(F)(F)F)c4)c3)n2n1
GI50 [1]: 0.822 µM | TGI [1]: 1.91 µM | GI50 [2]: 0.0227 µM | TGI [2]: 0.787 µM | GI50 [3]: 4 µM | TGI [3]: 10.4 µM | GI50 [4]: 2.17 µM | TGI [4]: 8.72 µM | GI50 [5]: 0.955 µM | TGI [5]: 2.16 µM | GI50 [6]: 7.58 µM | TGI [6]: 14.3 µM | GI50 [7]: 6.04 µM | TGI [7]: 12.3 µM | GI50 [8]: 0.854 µM | TGI [8]: 1.71 µM | GI50 [9]: 6.21 µM | TGI [9]: 12.9 µM | GI50 [10]: 0.891 µM | TGI [10]: 1.69 µM | GI50 [11]: 0.889 µM | TGI [11]: 2.17 µM | GI50 [12]: 6.05 µM | TGI [12]: 12.2 µM | GI50 [13]: 3.54 µM | TGI [13]: 9.9 µM | GI50 [14]: 0.879 µM | TGI [14]: 6.57 µM | GI50 [15]: 0.386 µM | TGI [15]: 4.66 µM | GI50 [16]: 6.09 µM | TGI [16]: 12.5 µM | GI50 [17]: 1.68 µM | TGI [17]: 9.75 µM | GI50 [18]: 1.95 µM | TGI [18]: 7.06 µM | GI50 [19]: 0.615 µM | TGI [19]: 1.32 µM | GI50 [20]: 4.81 µM | TGI [20]: 11.2 µM | GI50 [21]: 0.883 µM | TGI [21]: 1.78 µM | GI50 [22]: 5.58 µM | TGI [22]: 13.3 µM | GI50 [23]: 6.05 µM | TGI [23]: 12.4 µM | GI50 [24]: 0.876 µM | TGI [24]: 1.63 µM | GI50 [25]: 1.08 µM | TGI [25]: 2.91 µM | GI50 [26]: 1.57 µM | TGI [26]: 6.96 µM | GI50 [27]: 5.07 µM | TGI [27]: 11.2 µM | GI50 [28]: 1.28 µM | TGI [28]: 2.39 µM | GI50 [29]: 1.23 µM | TGI [29]: 8.28 µM | GI50 [30]: 3.37 µM | TGI [30]: 9.44 µM | GI50 [31]: 1.71 µM | TGI [31]: 8.31 µM | GI50 [32]: 4.75 µM | TGI [32]: 10.8 µM | GI50 [33]: 0.863 µM | TGI [33]: 2.62 µM | GI50 [34]: 8.21 µM | TGI [34]: 15.7 µM | GI50 [35]: 1.21 µM | TGI [35]: 6.51 µM | GI50 [36]: 0.801 µM | TGI [36]: 1.76 µM | GI50 [37]: 0.949 µM | TGI [37]: 2.27 µM | GI50 [38]: 1.14 µM | TGI [38]: 3.14 µM | GI50 [39]: 0.75 µM | TGI [39]: 1.42 µM | GI50 [40]: 6.9 µM | TGI [40]: 13.5 µM | GI50 [41]: 0.614 µM | TGI [41]: 1.63 µM | GI50 [42]: 5.08 µM | TGI [42]: 11.8 µM | GI50 [43]: 2.7 µM | TGI [43]: 9.71 µM | GI50 [44]: 2.23 µM | TGI [44]: 7.79 µM | GI50 [45]: 8.01 µM | TGI [45]: 15 µM | GI50 [46]: 0.564 µM | TGI [46]: 1.47 µM | GI50 [47]: 3.98 µM | TGI [47]: 10.4 µM | GI50 [48]: 7.83 µM | TGI [48]: 15.5 µM | GI50 [49]: 1.59 µM | TGI [49]: 5.7 µM | GI50 [50]: 2.51 µM | TGI [50]: 8.72 µM | GI50 [51]: 2.13 µM | TGI [51]: 7.8 µM | GI50 [52]: 0.933 µM | TGI [52]: 2.75 µM | GI50 [53]: 12.1 µM | TGI [53]: 19.5 µM | GI50 [54]: 5.08 µM | TGI [54]: 10.9 µM | GI50 [55]: 0.947 µM | TGI [55]: 2.15 µM | GI50 [56]: 1 µM | TGI [56]: 2.08 µM
